Activity calls are given as the source filed them. The rule behind the calls is not given here.
Assays:
[1] = system: NCI-H460; assay: Cytotoxicity in human NCI-H460 cells assessed as cell viability at 50 nM incubated for 48 hrs by MTT assay; type: functional; conditions: NCI-H460, 48 h, read-out: Activity
[2] = target: Nuclear receptor subfamily 4immunitygroup A member 1 (Homo sapiens) (UniProt P22736); assay: Induction of Nur77 protein translocation from nucleus to cytoplasm in human NCI-H460 cells at 20 nM incubated for 3 hrs by immunofluorescence microscopy; type: cell-based
Chain of Nuclear receptor subfamily 4immunitygroup A member 1 (Homo sapiens) (P22736 whole entry): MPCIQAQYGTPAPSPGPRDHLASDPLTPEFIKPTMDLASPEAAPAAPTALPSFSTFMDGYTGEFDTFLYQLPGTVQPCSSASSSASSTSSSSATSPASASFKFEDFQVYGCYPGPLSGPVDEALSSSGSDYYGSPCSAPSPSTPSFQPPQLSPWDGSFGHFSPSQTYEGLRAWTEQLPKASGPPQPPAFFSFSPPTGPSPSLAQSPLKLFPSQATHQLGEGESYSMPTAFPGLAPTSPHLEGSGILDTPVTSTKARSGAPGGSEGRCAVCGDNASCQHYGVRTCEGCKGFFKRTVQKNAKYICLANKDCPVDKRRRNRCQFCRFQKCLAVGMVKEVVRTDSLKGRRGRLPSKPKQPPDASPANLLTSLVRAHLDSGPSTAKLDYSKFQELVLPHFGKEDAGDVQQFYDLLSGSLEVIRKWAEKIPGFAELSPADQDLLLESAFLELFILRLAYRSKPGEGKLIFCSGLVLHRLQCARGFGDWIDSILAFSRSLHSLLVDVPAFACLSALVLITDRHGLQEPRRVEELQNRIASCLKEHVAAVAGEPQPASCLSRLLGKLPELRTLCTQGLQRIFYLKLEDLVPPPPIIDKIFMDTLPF

[3] = system: NCI-H460; assay: Induction of Nur77 protein expression in human NCI-H460 cells at 20 nM incubated for 3 hrs by Western blot method relative to digoxin; type: functional, cell-based

SMILES | viability at 0.05 µM [1] [%] | Activity [2] | Activity [3]
CO[C@H]1[C@H](O)[C@@H](O)[C@H](N(OC)[C@@H]2CC[C@@]3(C)[C@H](CC[C@@H]4[C@@H]3C[C@@H](O)[C@]3(C)[C@@H](C5=CC(=O)OC5)CC[C@]43O)C2)O[C@@H]1C | > 90 | – | –
CO[C@@H]1[C@@H](O)[C@H](OC)[C@@H](C)O[C@H]1N(OC)[C@@H]1CC[C@@]2(C)[C@H](CC[C@@H]3[C@@H]2C[C@@H](O)[C@]2(C)[C@@H](C4=CC(=O)OC4)CC[C@]32O)C1 | > 90 | Active | –
CO[C@@H]1[C@@H](C)O[C@@H](N(OC)[C@@H]2CC[C@@]3(C)[C@H](CC[C@@H]4[C@@H]3C[C@@H](O)[C@]3(C)[C@@H](C5=CC(=O)OC5)CC[C@]43O)C2)C[C@H]1OC | > 90 | – | –
CO[C@@H]1[C@@H](OC)[C@H](O)[C@@H](C)O[C@H]1N(OC)[C@@H]1CC[C@@]2(C)[C@H](CC[C@@H]3[C@@H]2C[C@@H](O)[C@]2(C)[C@@H](C4=CC(=O)OC4)CC[C@]32O)C1 | > 90 | Active | –
CO[C@H]1[C@H](O)[C@@H](O)[C@H](N(OC)[C@H]2CC[C@@]3(C)[C@H](CC[C@@H]4[C@@H]3C[C@@H](O)[C@]3(C)[C@@H](C5=CC(=O)OC5)CC[C@]43O)C2)O[C@@H]1C | > 90 | – | –
CON([C@H]1CC[C@@]2(C)[C@H](CC[C@@H]3[C@@H]2C[C@@H](O)[C@]2(C)[C@@H](C4=CC(=O)OC4)CC[C@]32O)C1)[C@@H]1O[C@H](C)[C@@H](O)[C@H](O)[C@H]1O | > 90 | – | –
CO[C@@H]1[C@@H](O)[C@H](O)[C@@H](C)O[C@H]1N(OC)[C@@H]1CC[C@@]2(C)[C@H](CC[C@@H]3[C@@H]2C[C@@H](O)[C@]2(C)[C@@H](C4=CC(=O)OC4)CC[C@]32O)C1 | > 90 | – | Active
CON[C@H]1CC[C@@]2(C)[C@H](CC[C@@H]3[C@@H]2C[C@@H](O)[C@]2(C)[C@@H](C4=CC(=O)OC4)CC[C@]32O)C1 | – | – | inactive
CO[C@@H]1[C@@H](OC)[C@H](O)[C@@H](C)O[C@H]1N(OC)[C@H]1CC[C@@]2(C)[C@H](CC[C@@H]3[C@@H]2C[C@@H](O)[C@]2(C)[C@@H](C4=CC(=O)OC4)CC[C@]32O)C1 | > 90 | – | –
CO[C@@H]1[C@@H](O)[C@H](O)[C@@H](C)O[C@H]1N(OC)[C@H]1CC[C@@]2(C)[C@H](CC[C@@H]3[C@@H]2C[C@@H](O)[C@]2(C)[C@@H](C4=CC(=O)OC4)CC[C@]32O)C1 | > 90 | – | –
CON([C@@H]1CC[C@@]2(C)[C@H](CC[C@@H]3[C@@H]2C[C@@H](O)[C@]2(C)[C@@H](C4=CC(=O)OC4)CC[C@]32O)C1)[C@@H]1O[C@H](C)[C@@H](O)[C@H](O)[C@H]1O | > 90 | – | Active
CON([C@@H]1CC[C@@]2(C)[C@H](CC[C@@H]3[C@@H]2C[C@@H](O)[C@]2(C)[C@@H](C4=CC(=O)OC4)CC[C@]32O)C1)[C@@H]1O[C@H](CO)[C@@H](O)[C@H](O)[C@H]1O | > 90 | Active | –
CO[C@@H]1[C@@H](O)[C@H](N(OC)[C@H]2CC[C@@]3(C)[C@H](CC[C@@H]4[C@@H]3C[C@@H](O)[C@]3(C)[C@@H](C5=CC(=O)OC5)CC[C@]43O)C2)O[C@H](C)[C@H]1O | > 90 | Active | –
CO[C@@H]1[C@@H](O)[C@H](N(OC)[C@@H]2CC[C@@]3(C)[C@H](CC[C@@H]4[C@@H]3C[C@@H](O)[C@]3(C)[C@@H](C5=CC(=O)OC5)CC[C@]43O)C2)O[C@H](C)[C@H]1O | > 90 | – | –
CON[C@@H]1CC[C@@]2(C)[C@H](CC[C@@H]3[C@@H]2C[C@@H](O)[C@]2(C)[C@@H](C4=CC(=O)OC4)CC[C@]32O)C1 | – | – | inactive
CO[C@@H]1[C@@H](C)O[C@@H](N(OC)[C@H]2CC[C@@]3(C)[C@H](CC[C@@H]4[C@@H]3C[C@@H](O)[C@]3(C)[C@@H](C5=CC(=O)OC5)CC[C@]43O)C2)C[C@H]1OC | > 90 | – | –
CO[C@@H]1[C@@H](O)[C@H](N(OC)[C@H]2CC[C@@]3(C)[C@H](CC[C@@H]4[C@@H]3C[C@@H](O)[C@]3(C)[C@@H](C5=CC(=O)OC5)CC[C@]43O)C2)O[C@H](C)[C@H]1OC | > 90 | – | –
CO[C@@H]1[C@@H](O)[C@H](OC)[C@@H](C)O[C@H]1N(OC)[C@H]1CC[C@@]2(C)[C@H](CC[C@@H]3[C@@H]2C[C@@H](O)[C@]2(C)[C@@H](C4=CC(=O)OC4)CC[C@]32O)C1 | > 90 | Active | Active
CON([C@H]1CC[C@@]2(C)[C@H](CC[C@@H]3[C@@H]2C[C@@H](O)[C@]2(C)[C@@H](C4=CC(=O)OC4)CC[C@]32O)C1)[C@H]1O[C@@H](CO)[C@H](O)[C@@H](O)[C@@H]1O | > 90 | Active | Active
CO[C@@H]1C[C@H](N(OC)[C@@H]2CC[C@@]3(C)[C@H](CC[C@@H]4[C@@H]3C[C@@H](O)[C@]3(C)[C@@H](C5=CC(=O)OC5)CC[C@]43O)C2)O[C@H](C)[C@H]1O | > 90 | Active | –
CON([C@@H]1CC[C@@]2(C)[C@H](CC[C@@H]3[C@@H]2C[C@@H](O)[C@]2(C)[C@@H](C4=CC(=O)OC4)CC[C@]32O)C1)[C@H]1O[C@@H](CO)[C@H](O)[C@@H](O)[C@@H]1O | > 90 | – | Active
CON([C@H]1CC[C@@]2(C)[C@H](CC[C@@H]3[C@@H]2C[C@@H](O)[C@]2(C)[C@@H](C4=CC(=O)OC4)CC[C@]32O)C1)[C@@H]1O[C@H](CO)[C@@H](O)[C@H](O)[C@H]1O | > 90 | – | –
CO[C@@H]1C[C@H](N(OC)[C@H]2CC[C@@]3(C)[C@H](CC[C@@H]4[C@@H]3C[C@@H](O)[C@]3(C)[C@@H](C5=CC(=O)OC5)CC[C@]43O)C2)O[C@H](C)[C@H]1O | > 90 | – | –
CO[C@@H]1[C@@H](O)[C@H](N(OC)[C@@H]2CC[C@@]3(C)[C@H](CC[C@@H]4[C@@H]3C[C@@H](O)[C@]3(C)[C@@H](C5=CC(=O)OC5)CC[C@]43O)C2)O[C@H](C)[C@H]1OC | > 90 | Active | –

— ChEMBL document CHEMBL4052687, “Synthesis of MeON-neoglycosides of digoxigenin with 6-deoxy- and 2,6-dideoxy-d-glucose derivatives and their anticancer activity” (2017)
